Here are results for 23 molecules from ChEMBL document CHEMBL1155353, “Isatin derivatives, a novel class of transthyretin fibrillogenesis inhibitors” (Bioorg Med Chem Lett, 2009).

A word on the IC50: it is the point on the concentration scale where inhibition reaches its midpoint.

Test [1] deals with T1, Transthyretin (Homo sapiens, UniProt P02766). Put plainly: Inhibition of TTR mediated fibrillogenesis assessed as acid-induced protein aggregation turbidity after 1.5 hrs by turbidimetric assay.
For test [2], the target named is T1, Transthyretin. Put plainly: Displacement of [125I]thyroxin from TTR. (In a radioligand displacement assay an active substance lowers the binding of a labelled ligand.)
Test [3] deals with T1, Transthyretin. Put plainly: Inhibition of TTR mediated fibrillogenesis assessed as acid-induced protein aggregation turbidity after 1.5 hrs by turbidimetric assay relative to control. Also noted: concentration or dose not given beside the values.
Test [4] addresses T1, Transthyretin. The test can be described thus: Inhibition of TTR mediated fibrillogenesis assessed as acid-induced protein aggregation turbidity at […] after 1.5 hrs by turbidimetric assay relative to control. More on the design: scale not given: the % may be the effect or the level left.
In test [5] the target is T1, Transthyretin. The test can be described thus: Binding affinity to TTR at 40 uM by isothermal titration calorimetry. (ITC needs no label: the signal is the heat of the interaction.)

The source made the active and inactive calls. The calls are words filed in the database; no cut-off is given here. Where only a bound is given, the exact number is not on record here.

Turning to `COc1ccc(/N=C2\C(=O)Nc3ccc(I)cc32)cc1`, the IC50 at Transthyretin [1] was above 50 µM. Moreover, the result on Transthyretin [2] was inactive. Besides, on Transthyretin [3], the Activity worked out at 42%.

Regarding `O=C1Nc2ccc(Br)cc2/C1=N/c1ccc(I)cc1`, on Transthyretin [1], the IC50 was above 50 µM. Besides, the result at Transthyretin [2] was inactive. Besides, the Activity at Transthyretin [3] came out at 16%.

For `O=C1Nc2ccc(I)cc2/C1=N/c1ccccc1`, at Transthyretin [1], the IC50 was above 50 µM. For the same molecule, at Transthyretin [2], the result was inactive. In addition, on Transthyretin [3], the Activity came out at 1%.

Regarding `Oc1c(I)cc(I)cc1I` [TRIIODOPHENOL], on Transthyretin [1], the IC50 was 3.2 µM. For the same molecule, on Transthyretin [2], the result was inactive. The Activity on Transthyretin [3] was found to be 80%.

Consider `CN1C(=O)/C(=N\c2ccc(I)cc2)c2ccccc21`, for which, at Transthyretin [1], the IC50 was above 50 µM. Moreover, the result on Transthyretin [2] was inactive. Also, the Activity at Transthyretin [3] stood at 0%.

For the molecule `O=C1Nc2ccc([N+](=O)[O-])cc2/C1=N/c1ccc(I)cc1`, the IC50 on Transthyretin [1] is above 50 µM. Further, at Transthyretin [2], the result was inactive. The Activity at Transthyretin [4] and on Transthyretin [3] was 7% throughout.

With `Cc1ccc2c(c1)/C(=N/c1ccc(I)cc1)C(=O)N2`, the IC50 on Transthyretin [1] was above 50 µM. The outcome on Transthyretin [2] and on Transthyretin [3] was inactive. Besides, the Activity on Transthyretin [4] came out at 7%.

Turning to `Cc1ccc(/N=C2\C(=O)Nc3ccccc32)cc1`, the IC50 at Transthyretin [1] was above 50 µM. For the same molecule, at Transthyretin [2], the outcome was inactive. For the same molecule, the Activity at Transthyretin [4] worked out at 14%.

As for `COc1ccc(/N=C2\C(=O)Nc3ccc(Br)cc32)cc1`, the IC50 at Transthyretin [1] is above 50 µM. Besides, the outcome at Transthyretin [2] was inactive. For the same molecule, on Transthyretin [3], the Activity stood at 48%.

Consider `CN1C(=O)/C(=N\c2ccccc2)c2ccccc21`, for which the IC50 at Transthyretin [1] is 11 µM. Moreover, at Transthyretin [2], the outcome was inactive. The Activity at Transthyretin [3] worked out at 77%.

In the case of `COc1ccc(/N=C2\C(=O)Nc3ccc([N+](=O)[O-])cc32)cc1`, the IC50 at Transthyretin [1] was above 50 µM. Also, on Transthyretin [2], the outcome was inactive. The Activity at Transthyretin [3] was determined as 24%.

With `O=C1Nc2ccccc2/C1=N/c1ccc([N+](=O)[O-])cc1`, the outcome at Transthyretin [5] and on Transthyretin [2] was inactive. For the same molecule, the IC50 at Transthyretin [1] came out at 2.8 µM. Further, the Activity at Transthyretin [3] was 90%.

`COc1ccc(/N=C2\C(=O)Nc3ccccc32)cc1`: at Transthyretin [2], the outcome was inactive. At Transthyretin [3], the Activity was found to be 100%.

As to `COc1ccc(/N=C2/C(=O)Nc3ccccc32)cc1`, the IC50 at Transthyretin [1] is 8.1 µM.

Turning to `O=C1Nc2ccccc2/C1=N/c1ccc(I)cc1`, the IC50 on Transthyretin [1] was above 50 µM. At Transthyretin [2], the outcome was inactive. The Activity at Transthyretin [3] came to 0%.

With `Cc1ccc(/N=C2\C(=O)N(C)c3ccccc32)cc1`, on Transthyretin [1], the IC50 is 6.3 µM. In addition, at Transthyretin [2], the outcome was inactive. For the same molecule, the Activity on Transthyretin [3] came to 8.6%.

Regarding `O=C1Nc2ccccc2C1=O` [ISATIN], at Transthyretin [1], the half-maximal inhibitory concentration (IC50) was above 50 µM. At Transthyretin [2], the outcome was inactive. Also, the Activity at Transthyretin [4] was found to be 24%.

For the molecule `COc1ccc(/N=C2\C(=O)N(C)c3ccccc32)cc1`, the IC50 on Transthyretin [1] was 7.7 µM. In addition, the outcome on Transthyretin [2] was inactive. Moreover, the Activity on Transthyretin [3] stood at 81%.

For the molecule `N[C@@H](Cc1cc(I)c(Oc2cc(I)c(O)c(I)c2)c(I)c1)C(=O)O`, the result on Transthyretin [2] was inactive. In addition, at Transthyretin [3], the Activity amounted to 95%.

Regarding `CN1C(=O)C(=O)c2ccccc21`, at Transthyretin [1], the IC50 was determined as 6.3 µM. Besides, at Transthyretin [2], the result was inactive. Also, the Activity at Transthyretin [3] was 100%.

For `CN1C(=O)/C(=N\c2ccc([N+](=O)[O-])cc2)c2ccccc21`, the IC50 on Transthyretin [1] turned out to be 6.3 µM. In addition, the outcome on Transthyretin [2] was inactive. The Activity on Transthyretin [3] is 86%.

For the molecule `O=C1Nc2ccc(I)cc2/C1=N/c1ccc(I)cc1`, the IC50 on Transthyretin [1] is above 50 µM. Also, at Transthyretin [2], the result was inactive. Besides, on Transthyretin [3], the Activity stood at 23%.

On to `COc1ccc(/N=C2\C(=O)Nc3ccc(C)cc32)cc1`, for which, on Transthyretin [1], the IC50 is above 50 µM. For the same molecule, the result on Transthyretin [2] was inactive. The Activity on Transthyretin [3] turned out to be 32%.
